The values that follow come from ChEMBL document CHEMBL1932988, “Synthesis, antimicrobial, anticancer evaluation and QSAR studies of 6-methyl-4-[1-(2-substituted-phenylamino-acetyl)-1H-indol-3-yl]-2-oxo/thioxo-1,2,3,4-tetrahydropyrimidine-5-carboxylic acid ethyl esters” (Eur J Med Chem, 2012).

In brackets after ≈: the same amount, converted by molar mass. Where only a bound is given, the exact number is not on record here.

Data set [1] relates to Staphylococcus aureus. As to the kind of experiment: Antibacterial activity against Staphylococcus aureus MTCC 2901 after 24 hrs by tube dilution method. Type of data set: functional.
Data set [2] concerns Bacillus subtilis. In words: Antibacterial activity against Bacillus subtilis MTCC 2063 after 24 hrs by tube dilution method. The data set is classed as functional.
The test system of data set [3] is Escherichia coli. As to the kind of experiment: Antibacterial activity against Escherichia coli MTCC 1652 after 24 hrs by tube dilution method. The data set is classed as functional.
Data set [4] relates to Candida albicans. As to the kind of experiment: Antifungal activity against Candida albicans MTCC 227 after 48 hrs by tube dilution method. The data set is classed as functional.
Data set [5] relates to Aspergillus niger. As to the kind of experiment: Antifungal activity against Aspergillus niger MTCC 8189 after 7 days by tube dilution method. Type of data set: functional.
Data set [6] relates to Staphylococcus aureus. In words: Antibacterial activity against Staphylococcus aureus MTCC 2901 after 24 hrs followed by subculturing. Type of data set: functional.
Data set [7] deals with Bacillus subtilis. As to the kind of experiment: Antibacterial activity against Bacillus subtilis MTCC 2063 after 24 hrs by tube dilution method hrs followed by subculturing. The data set is classed as functional.
Data set [8] deals with Escherichia coli. In words: Antibacterial activity against Escherichia coli MTCC 1652 after 24 hrs by tube dilution method hrs followed by subculturing. Type of data set: functional.
In data set [9] the test system is Candida albicans. In words: Antifungal activity against Candida albicans MTCC 227 after 48 hrs by tube dilution method hrs followed by subculturing. Type of data set: functional.
The subject of data set [10] is Aspergillus niger. As to the kind of experiment: Antifungal activity against Aspergillus niger MTCC 8189 after 7 days by tube dilution method hrs followed by subculturing. Type of data set: functional.
Data set [11] deals with Staphylococcus aureus. In words: Ratio of MIC to MBC for Staphylococcus aureus MTCC 2901. The data set is classed as functional.
The test system of data set [12] is Bacillus subtilis. As to the kind of experiment: Ratio of MIC to MBC for Bacillus subtilis MTCC 2063. Type of data set: functional.
Data set [13] relates to Escherichia coli. In words: Ratio of MIC to MBC for Escherichia coli MTCC 1652. The data set is classed as functional.
Data set [14] has as its system Candida albicans. As to the kind of experiment: Ratio of MIC to MFC for Candida albicans MTCC 227. The data set is classed as functional.
Data set [15] has as its system Aspergillus niger. As to the kind of experiment: Ratio of MIC to MFC for Aspergillus niger MTCC 8189. The data set is classed as functional.
The nature of data set [16]: Partition coefficient, log P of the compound. The data set is classed as physicochemical. The note with it: octanol/water.
The next data set concerns MCF7. In words: cells. The note with it: Homo sapiens, MCF7, 72 h.
The next data set relates to HCT-116. In words: cells. The note with it: Homo sapiens, HCT-116, 72 h.

Description for MCF7: Cytotoxicity against human MCF7 cells after 72 hrs by MTT assay

The term logP denotes the decadic logarithm of the partition coefficient of the neutral form, usually between octanol and water. Read a high logP as a more lipophilic compound. As usually defined, the IC50 is the concentration at which inhibition is half-maximal. On to `CCOC(=O)C1=C(C)NC(=S)NC1c1cn(C(=O)CNc2ccc([N+](=O)[O-])c(Cl)c2)c2ccccc12` (centres undefined), for which the “-logMIC” value in the data set with Staphylococcus aureus [1] came to 1.63; in the data set with Bacillus subtilis [2] it was 1.32; with Escherichia coli [3] it was 1.63; in the data set with Candida albicans [4] it was 1.63; in the data set with Aspergillus niger [5], 1.63. The MBC in the data set with Staphylococcus aureus [6], against Bacillus subtilis [7] and against Escherichia coli [8] was over 0.09 uM/ml throughout. The MFC in the data set on Candida albicans [9] and in the data set with Aspergillus niger [10] was over 0.09 uM/ml each time. In addition, the Ratio in the data set with Staphylococcus aureus [11], in the data set with Bacillus subtilis [12], with Escherichia coli [13], in the data set with Candida albicans [14] and in the data set on Aspergillus niger [15] was 3 each time. The logP in [16] turned out to be 3.4. Moreover, the half-maximal inhibitory concentration (IC50) in the data set with MCF7 was 50 µg/mL (≈ 94.7 µM); in the data set with HCT-116 it was 29 µg/mL (≈ 54.9 µM).

With `CCOC(=O)C1=C(C)NC(=O)NC1c1cn(C(=O)CNc2ccc([N+](=O)[O-])cc2C)c2ccccc12` (centres undefined), the “-logMIC” value in the data set with Staphylococcus aureus [1] stood at 1.59; with Bacillus subtilis [2] it was 1.29; in the data set with Escherichia coli [3], 1.59; in the data set with Candida albicans [4], 1.59; in the data set with Aspergillus niger [5] it was 1.59. For the same compound, the MBC with Staphylococcus aureus [6], in the data set on Bacillus subtilis [7] and against Escherichia coli [8] was over 0.1 uM/ml throughout. Besides, the MFC in the data set with Candida albicans [9] and in the data set with Aspergillus niger [10] was over 0.1 uM/ml throughout. The Ratio in the data set with Staphylococcus aureus [11], in the data set with Bacillus subtilis [12], with Escherichia coli [13], in the data set with Candida albicans [14] and in the data set with Aspergillus niger [15] was 3 in each case. Besides, the logP in data set [16] amounted to 1.94. The values for the IC50 in the data set with MCF7 and in the data set with HCT-116 were 50 µg/mL (≈ 102 µM) and 600 µg/mL (≈ 1220 µM), respectively.

As to `CCOC(=O)C1=C(C)NC(=S)NC1c1cn(C(=O)CNc2ccc([N+](=O)[O-])cc2C)c2ccccc12` (centres undefined), the “-logMIC” value in the data set with Staphylococcus aureus [1], with Bacillus subtilis [2], with Escherichia coli [3], in the data set with Candida albicans [4] and in the data set on Aspergillus niger [5] was 1.61 each time. For the same compound, the MBC against Staphylococcus aureus [6], in the data set on Bacillus subtilis [7] and in the data set with Escherichia coli [8] was over 0.1 uM/ml throughout. The MFC in the data set on Candida albicans [9] and with Aspergillus niger [10] was over 0.1 uM/ml each time. The Ratio in the data set on Staphylococcus aureus [11], in the data set with Bacillus subtilis [12], in the data set on Escherichia coli [13], in the data set on Candida albicans [14] and with Aspergillus niger [15] was 3 in each case. The same compound registered a logP in data set [16] of 3.34. Besides, the figures for the IC50 with MCF7 and in the data set on HCT-116 were 48 µg/mL (≈ 94.6 µM) and over 1000 µg/mL, respectively.

As to `CCOC(=O)C1=C(C)NC(=O)NC1c1cn(C(=O)CNc2ccccc2N)c2ccccc12` (centres undefined), the “-logMIC” value is on record as 1.55 in the data set on Staphylococcus aureus [1]; 1.55 in the data set with Bacillus subtilis [2]; 1.85 with Escherichia coli [3]; 1.55 in the data set on Candida albicans [4]; 1.55 in the data set with Aspergillus niger [5]. The MBC in the data set with Staphylococcus aureus [6] is over 0.11 uM/ml; in the data set with Bacillus subtilis [7], over 0.11 uM/ml; in the data set with Escherichia coli [8], 0.11 uM/ml. The MFC against Candida albicans [9] and against Aspergillus niger [10] was over 0.11 uM/ml throughout. The Ratio in the data set on Staphylococcus aureus [11], with Bacillus subtilis [12], in the data set with Escherichia coli [13], in the data set on Candida albicans [14] and with Aspergillus niger [15] was 3 throughout. The same compound displayed a logP in [16] of 0.74. In addition, the concentration for half-maximal inhibition (IC50) turned out to be 2.5 µg/mL (≈ 5.59 µM) in the data set with MCF7 and 300 µg/mL (≈ 670 µM) with HCT-116.

Consider `CCOC(=O)C1=C(C)NC(=S)NC1c1cn(C(=O)CNc2cccc([N+](=O)[O-])c2)c2ccccc12` (centres undefined), for which the “-logMIC” value in the data set with Staphylococcus aureus [1] came to 1.6; with Bacillus subtilis [2], 1.6; in the data set with Escherichia coli [3], 1.9; in the data set on Candida albicans [4], 1.6; in the data set on Aspergillus niger [5], 1.6. The MBC against Staphylococcus aureus [6] is over 0.1 uM/ml; with Bacillus subtilis [7], over 0.1 uM/ml; with Escherichia coli [8] it was 0.1 uM/ml. Moreover, the MFC against Candida albicans [9] and with Aspergillus niger [10] was over 0.1 uM/ml each time. For the same compound, the Ratio in the data set on Staphylococcus aureus [11], in the data set on Bacillus subtilis [12], in the data set on Escherichia coli [13], in the data set on Candida albicans [14] and in the data set with Aspergillus niger [15] was 3 in each case. In [16], the log partition coefficient (logP) stood at 2.88. In addition, the IC50 was over 1000 µg/mL in the data set on MCF7 and 130 µg/mL (≈ 263 µM) with HCT-116.

Turning to `CCOC(=O)C1=C(C)NC(=S)NC1c1cn(C(=O)CNc2ccccc2[N+](=O)[O-])c2ccccc12` (centres undefined), the “-logMIC” value in the data set with Staphylococcus aureus [1] is listed as 1.3; with Bacillus subtilis [2] it was 1.6; in the data set with Escherichia coli [3], 1.6; with Candida albicans [4], 1.6; in the data set with Aspergillus niger [5] it was 1.6. Also, the MBC with Staphylococcus aureus [6], in the data set with Bacillus subtilis [7] and with Escherichia coli [8] was over 0.1 uM/ml throughout. Moreover, the MFC in the data set with Candida albicans [9] and in the data set on Aspergillus niger [10] was over 0.1 uM/ml in each case. Also, the Ratio in the data set on Staphylococcus aureus [11], in the data set on Bacillus subtilis [12], in the data set with Escherichia coli [13], in the data set with Candida albicans [14] and in the data set with Aspergillus niger [15] was 3 each time. The compound also registered a logP in [16] of 2.88. For the same compound, the results for the concentration for half-maximal inhibition (IC50) in the data set on MCF7 and with HCT-116 were 550 µg/mL (≈ 1110 µM) and over 1000 µg/mL, respectively.

As to `CCOC(=O)C1=C(C)NC(=O)NC1c1cn(C(=O)CNc2ccccc2[N+](=O)[O-])c2ccccc12` (centres undefined), the “-logMIC” value in the data set with Staphylococcus aureus [1], in the data set with Bacillus subtilis [2], in the data set with Escherichia coli [3], in the data set with Candida albicans [4] and with Aspergillus niger [5] was 1.58 throughout. The MBC in the data set on Staphylococcus aureus [6], against Bacillus subtilis [7] and against Escherichia coli [8] was over 0.1 uM/ml each time. Besides, the MFC against Candida albicans [9] and in the data set with Aspergillus niger [10] was over 0.1 uM/ml throughout. Besides, the Ratio with Staphylococcus aureus [11], with Bacillus subtilis [12], with Escherichia coli [13], in the data set on Candida albicans [14] and in the data set on Aspergillus niger [15] was 3 each time. The logP in [16] is 1.48. Besides, the results for the IC50 in the data set on MCF7 and with HCT-116 were 40 µg/mL (≈ 83.8 µM) and 250 µg/mL (≈ 524 µM), respectively.

Consider `CCOC(=O)C1=C(C)NC(=S)NC1c1cn(C(=O)CNc2ccccc2)c2ccccc12` (centres undefined), for which the “-logMIC” value was determined as 1.55 in the data set with Staphylococcus aureus [1]; 1.25 in the data set with Bacillus subtilis [2]; 1.55 in the data set with Escherichia coli [3]; 1.55 with Candida albicans [4]; 1.55 in the data set on Aspergillus niger [5]. The MBC in the data set on Staphylococcus aureus [6], in the data set on Bacillus subtilis [7] and in the data set on Escherichia coli [8] was over 0.11 uM/ml throughout. The MFC against Candida albicans [9] and in the data set on Aspergillus niger [10] was over 0.11 uM/ml throughout. Also, the Ratio in the data set with Staphylococcus aureus [11], in the data set on Bacillus subtilis [12], with Escherichia coli [13], with Candida albicans [14] and in the data set on Aspergillus niger [15] was 3 in each case. Also, the logP in [16] is 2.92. Further, the concentration for half-maximal inhibition (IC50) amounted to 52 µg/mL (≈ 116 µM) in the data set with MCF7 and 450 µg/mL (≈ 1000 µM) in the data set on HCT-116.
